Assay [1] in a line: Inhibition of bovine Phosphatidylinositol 3-kinase. More on the design: species or system Bos taurus.
For assay [2], the species on record is Gallus gallus. Put plainly: Compound was evaluated for inhibitory activity against bone resorption in avian osteoclast.

The structures appear in SMILES notation.

In general, IC50 refers to the concentration needed to halve the response being measured.

Turning to `COC(=O)c1coc2c(O)c3c(c(C)c12)C=C[C@]1(C)C(=O)CC[C@@H]31`, the IC50 in assay [1] was 4.6 µM; in assay [2], more than 1 µM.
As for `COC[C@H]1OC(=O)c2coc3c2[C@@]1(C)C1=C(C3=O)[C@@H]2CCC(=O)[C@@]2(C)CC1`, the IC50 in assay [1] was found to be 0.0167 µM; in assay [2], 0.506 µM.
In turn, `COC[C@H]1OC(=O)c2coc3c2[C@@]1(C)C1=CC[C@]2(C)C(=O)CC[C@H]2C1C3=O` (stereo partly drawn) showed an IC50 in assay [1] of 0.054 µM.
As for `COC[C@H]1OC(=O)c2coc3c2[C@@]1(C)C1=C(C3=O)[C@@H]2CC[C@H](O)[C@@]2(C)C[C@H]1OC(C)=O`, the results for the IC50 in assay [1] and in assay [2] were 0.0005 µM and 0.01 µM, respectively.
On the same counts, the results for `COC[C@H]1OC(=O)c2c(C)oc3c2[C@@]1(C)C1=C(C3=O)[C@@H]2CCC(=O)[C@@]2(C)C[C@H]1OC(C)=O` are more than 0.5 µM and more than 1 µM.
`Cc1c2c(c(O)c3occ(C(=O)O)c13)C1CCC(=O)[C@@]1(C)C=C2` (stereo partly drawn): the half-inhibitory concentration (IC50) in assay [1] was more than 32 µM; in assay [2], more than 1 µM.
In assay [2], `COC[C@H]1OC(=O)c2coc3c2[C@@]1(C)C1=C(C3=O)C2CCC(O)[C@@]2(C)CC1` (stereo partly drawn) returned an IC50 of 0.103 µM.
In the case of `NCCCC(O)(P(=O)(O)O)P(=O)(O)O` [ALENDRONIC ACID], the results for the IC50 in assay [1] and in assay [2] were more than 50 µM and 0.1 µM, respectively.
Regarding `CC(O)(P(=O)(O)O)P(=O)(O)O` [ETIDRONIC ACID], the IC50 in assay [1] is more than 50 µM; in assay [2] it was 100 µM.
For the compound `COC[C@H]1OC(=O)c2coc3c2[C@@]1(C)C1=C(C3=O)[C@@H]2CCC(=O)[C@@]2(C)C[C@H]1OC(C)=O` [WORTMANNIN], the IC50 in assay [1] was found to be 0.0042 µM; in assay [2] it was 0.098 µM.
